Experimental data taken from patent US11965006B2, “Antimicrobial and anti-cancer therapy” (UNIVERSITY OF PITTSBURGH—OF THE COMMONWEALTH SYSTEM OF …, priority 2016, dated 2024).
“Also recorded” adds a separate entry of the source. Read-outs that look alike come from different tables or passages of the source. Square brackets hold non-standard residues; d marks the D form. Ends that are not written are not given here. Peptide text beside a SMILES is read from it.

Legend:
P. aeruginosa = experiment: In vivo respiratory P. aeruginosa infection; settings: high dosage bacterial inoculation, FIG. 16
[1] = tested on: Enterococcus faecium MDR clinical isolates; assay type: cell-based
Experimental: (§1) The bactericidal activities were examined using standard bacterial culture media (MHB) without the inclusion of human blood.
(§2) Tables 3 and 4 provide the MIC data for the tested AMPs against a variety of infectious species. The following strains were tested: Enterococcus faecium MDR clinical isolates Ef 25153 and Ef 26125; methicillin-resistant Staphylococcus aureus (MRSA) clinical isolates USA300 and 150-10; Klebsiella pneumonia MDR clinical isolates C3, C5, A5, D7 and E6; and Pseudomonas aeruginosa MDR clinical isolates PA 82-8 and PA 129-5. […] Table 5 provides the data for the D-amino acid substituted AMPs and their bactericidal activities against various Klebsiella pneumonia multi-drug resistant (MDR) clinical isolates. All odd number Kp bacteria (isolated prior to colistin treatment; colistin sensitive) are paired with the corresponding even number Kp bacteria (isolated after colistin treatment; colistin resistant) from the same patient. O.D. readings represent the bacterial growth with a background reading of about 0.049+/−0.003.

[2] = tested on: Klebsiella pneumonia MDR clinical isolates; assay type: cell-based
Experimental: as §1, §2

[3] = tested on: methicillin-resistant Staphylococcus aureus (MRSA) clinical isolates; assay type: cell-based
Experimental: as §1, §2

[4] = tested on: Pseudomonas aeruginosa MDR clinical isolates; assay type: cell-based
Experimental: as §1, §2

[5] = tested on: P. aeruginosa lipopolysaccharide (LPS)-induced secretion of tumor necrosis factor (TNF) in Raw (264.7) Cells; experiment: Neutralization of LPS-induced TNF secretion; assay type: cell-based; settings: 1 μg/ml LPS
Experimental: Anti-inflammatory activity is based on the determination of cytokine stimulation of major inflammatory (e.g. TNF) or anti-inflammatory (e.g., IL-10) cytokines. For in vitro studies, TNF is measured using culture medium from LPS-stimulated macrophage cultures in the presence or absence of peptide treatment. For in vivo studies, cytokine levels in bronchoalveolar lavage (BAL) fluid were quantified using the mouse cytokine multiplex panel assay (Milliplex; Millipore, Billerica, Mass.). The expressions of cytokines were analyzed using the Luminex assay system, based on manufacturer's instructions and our previous publication. Standard recombinant protein solution was used to generate a standard curve for each analyzed protein. Absolute cytokine concentrations were calculated from the standard curve for each cytokine.
A high dosage (1 μg/ml) of LPS was used to stimulate the TNF secretion in raw cells.

Pseudomonas aeruginosa = assay type: cell-based; settings: for MIC: 18 h
Experimental: as §1
FIG. 5 illustrates the bactericidal activity of the 30 amino acid AMP series against Pseudomonas aeruginosa (by kinetic assay) over time (hours). […] OD reading, at 570 nm, represents bacterial growth; background reading (˜0.05) was subtracted from sample readings. Bolded concentration indicates the determined MIC. For example, MIC for SEQ ID No. 4 was 4 μM, MIC for SEQ ID No. 8 was 2 μM, MIC for SEQ ID No. 7 was 2 μM, MIC for SEQ ID No. 5 was 2 μM, MIC for SEQ ID No. 6 was 2 μM, and MIC for SEQ ID No. 9 was 2 μM.
FIG. 6 illustrates the bactericidal activity of the 24 amino acid AMPs series against Pseudomonas aeruginosa (by kinetic assay) over time (hours). […] OD reading, at 570 nm, represents bacterial growth; background reading (˜0.05) was subtracted from sample readings. Bolded concentration indicates the determined MIC.

[6] = In vivo pulmonary toxicity; set-up: species or system mouse
Experimental: Pulmonary toxicity was tested in mouse lung.

Hep2 epithelial cells = experiment: Hep2 cytopathology in RSV plaque assay; assay type: cell-based; settings: 32 μM
Experimental: Using a standard plaque assay, RSV replication was quantified in permissive Hep2 epithelial cells in the presence or absence of various AMPs. RSV plaque assays were used to determine the minimum dose required to induce Hep2 cytopathology and maximum anti-viral effects. Experimental controls included Hep2 cells+/−RSV and Hep-2 cells with AMP only.
Hep2 control cells without the AMP were also plated. Both plates were infected with the same dilution of A2 RSV virus. There is extensive sloughing of cells treated with the peptide (top plate) as compared to cells which were not (bottom plate), FIG. 18.

[7] = In vivo toxicity / maximum tolerated dose; set-up: species or system Mice (strain: Swiss Webster)
Experimental: The modified AMPs show a lower toxicity and higher maximum tolerated dosage (MTD) than WLBU2 (SEQ ID No. 26). The MTD for WLBU2 (SEQ ID No. 26) is 15 mg/kg, for Colistin is 10 mg/kg, and SEQ ID No. 15 is 30 mg/kg (FIG. 14A).
Mice (strain: Swiss Webster) were injected with SEQ ID No. 15 peptides intravenously (i.v.) or intraperitoneally (i.p.) at the concentrations indicated. […] Thus, the estimated maximum tolerated dose (MTD) is around 40-50 mpk (i.v.). On a similar setting of testing other AMPS, the MTD for WLBU2 is 15 mpk (i.v.) and 10 mpk (i.v.) for colistin.

[8] = methicillin-resistant clinical isolates, 18 h

| Compound | MIC Ef 25153 ([1]; MDR clinical isolates, 18 h) | MIC Ef 26125 ([1]; MDR clinical isolates, 18 h) | MIC A5 ([2]; 18 h) | MIC C3 ([2]; 18 h) | MIC D7 ([2]; 18 h) | MIC E6 ([2]; 18 h) | MIC MRSA 150-10 [3, 8] | MIC MRSA USA300 [3, 8] | MIC PA82 82-8 ([4]; MDR clinical isolates, 18 h) | MIC PA 129-5 ([4]; MDR clinical isolates, 18 h) | neutralizing LPS-induced TNF secretion [5] | MIC C5 ([2]; 18 h) | MIC (Pseudomonas aeruginosa) | further results |
| --- | --- | --- | --- | --- | --- | --- | --- | --- | --- | --- | --- | --- | --- | --- |
| LKKWWKKVKGLLGGLLGK [SEQ ID No. 19, LKKWWKKVKGLLGGLLGK] | <2 µM | <2 µM | <2 µM | <2 µM | <2 µM | <2 µM | <1 µM | <2 µM | 8 µM | <1 µM | good activity; also recorded: Display Neutralizing Activities | – | – | antimicrobial activity against respiratory P. aeruginosa infection (P. aeruginosa): excellent antimicrobial activity |
| ILKKWWKTSKGLLGGLLGGVTSVIKKLKKI [SEQ ID No. 7] | >4 µM | <2 µM | – | <2 µM | <2 µM | <2 µM | <2 µM | <2 µM | 2 µM | <2 µM | – | 4 µM | 2 µM | – |
| ILKKWWKTSGGLLGGLLGKVTSVIKGLNNI [SEQ ID No. 4] | >4 µM | <2 µM | >4 µM | >4 µM | <2 µM | >4 µM | >4 µM | >4 µM | >4 µM | 4 µM | good activity; also recorded: display Neutralizing Activities | 4 µM | 4 µM | – |
| ILKKWWKTSKGLLGGLLGKVTSVIKGLNNI [SEQ ID No. 5] | >4 µM | <2 µM | >4 µM | 4 µM | <1 µM | 4 µM | >4 µM | >4 µM | >4 µM | <1 µM | good activity; also recorded: display Neutralizing Activities | 2 µM | 2 µM | – |
| ILKKWWKTSKGLLGGLLGGVTSVIKKLKKI [SEQ ID No. 8] | >4 µM | <2 µM | >4 µM | <2 µM | <2 µM | <2 µM | 4 µM | <2 µM | >4 µM | <2 µM | – | 4 µM | 2 µM | – |
| ILKKWWKTSKGLLGGLLGKVTSVIKGLKNI [SEQ ID No. 6] | >4 µM | <1 µM | >4 µM | 4 µM | 4 µM | 4 µM | <2 µM | >4 µM | >4 µM | >4 µM | display Neutralizing Activities | 4 µM | 2 µM | – |
| CC(C)[C@@H](NC(=O)[C@H](Cc1c[nH]c2ccccc12)NC(=O)[C@H](CCCNC(=N)N)NC(=O)[C@H](CCCNC(=N)N)NC(=O)[C@H](NC(=O)[C@H](NC(=O)[C@H](CCCNC(=N)N)NC(=O)[C@H](NC(=O)[C@H](NC(=O)[C@H](CCCNC(=N)N)NC(=O)[C@H](CCCNC(=N)N)NC(=O)[C@H](Cc1c[nH]c2ccccc12)NC(=O)[C@H](NC(=O)[C@H](CCCNC(=N)N)NC(=O)[C@H](CCCNC(=N)N)NC(=O)[C@H](NC(=O)[C@H](CCCNC(=N)N)NC(=O)[C@H](CCCNC(=N)N)NC(=O)[C@H](NC(=O)[C@H](Cc1c[nH]c2ccccc12)NC(=O)[C@H](CCCNC(=N)N)NC(=O)[C@@H](N)CCCNC(=N)N)C(C)C)C(C)C)C(C)C)C(C)C)C(C)C)C(C)C)C(C)C)C(=O)N[C@@H](CCCNC(=N)N)C(=O)N[C@@H](CCCNC(=N)N)C(=O)O [SEQ ID No. 34] (H-RRW[dV]RR[dV]RR[dV]WRR[dV][dV]R[dV][dV]RRW[dV]RR-OH; N-terminus and C-terminus assumed) | – | – | – | – | – | – | – | – | – | – | – | – | – | recruitment of leukocytes (a measure of inflammation) ([6]; at four times the concentration of SEQ ID No. 26): significantly lower than SEQ ID No. 26; behaviour of mice after treatment ([6]; response to the hand grab): more active and responsive; cytopathology in Hep2 cells (Hep2 epithelial cells): caused cytopathology |
| Colistin [reference compound] | – | – | – | – | – | – | – | – | – | – | Do Not Neutralize | – | – | maximum tolerated dosage (MTD) ([7]; FIG. 14A): 10 mg/kg; maximum tolerated dose (MTD) ([7]; i.v., Swiss Webster mice): 10 mpk; MIC Ef 25153 ([1]; isolate Ef 25153, Table 3): <16 µM; MIC Ef 26125 ([1]; isolate Ef 26125, Table 3): <16 µM; MIC A5 ([2]; isolate A5, Table 3): >32 µM; MIC C3 ([2]; isolate C3, Table 3): >32 µM; MIC C5 ([2]; isolate C5, Table 3): >32 µM; MIC D7 ([2]; isolate D7, Table 3): <16 µM; MIC E6 ([2]; isolate E6, Table 3): <16 µM; MIC MRSA 150-10 ([3]; isolate 150-10, Table 3): <16 µM; MIC MRSA USA300 ([3]; isolate USA300, Table 3): <16 µM; MIC PA 82-8 ([4]; isolate PA 82-8, Table 3): <16 µM; MIC PA 129-5 ([4]; isolate PA 129-5, Table 3): <16 µM |
| ILKKWWGTSGGLLGGLLGKVTSVIKGLNNI [SEQ ID No. 3] | 16 µM | 16 µM | 32 µM | >32 µM | – | – | <32 µM | <32 µM | >32 µM | >32 µM | good activity; also recorded: display Neutralizing Activities | >32 µM | – | bactericidal activity (Pseudomonas aeruginosa; kinetic assay, FIG. 5): did not have strong bactericidal activity |
| LKKWWKTVKGLLGGLLGKVTSVIK [SEQ ID No. 14] | <2 µM | <2 µM | >4 µM | <2 µM | <2 µM | <2 µM | <2 µM | <2 µM | <2 µM | <2 µM | good activity; also recorded: Display Neutralizing Activities | 4 µM | – | antimicrobial activity against respiratory P. aeruginosa infection (P. aeruginosa): excellent antimicrobial activity |
| ILKKWWKTVKGLLGGLLGGVTSVIKKLKKI [SEQ ID No. 9] | <2 µM | <2 µM | >4 µM | <2 µM | <2 µM | <2 µM | <2 µM | <2 µM | >4 µM | >4 µM | – | 4 µM | 2 µM | – |
